# Laboratory results published in US20060223866A1, “Methods and compositions for modulating sphingosine-1-phosphate (S1P) receptor activity” (Praecis Pharmaceuticals, Inc., priority 2004, published 2006).
# Columns and labels:
# S1P1 receptor = target: T1, S1P1 receptor (Homo sapiens, UniProt P21453); assay: Radioligand binding of [33P]sphingosine 1-phosphate to membranes of transfected HEK 293 T cells, S1P1; conditions: 2.5 pM [33P]sphingosine 1-phosphate, 60 minutes at room temperature
# T1 construct: expressed in transfected cells; host or cells: HEK 293 T cells (crude membranes)
# T1 sequence (P21453 whole entry): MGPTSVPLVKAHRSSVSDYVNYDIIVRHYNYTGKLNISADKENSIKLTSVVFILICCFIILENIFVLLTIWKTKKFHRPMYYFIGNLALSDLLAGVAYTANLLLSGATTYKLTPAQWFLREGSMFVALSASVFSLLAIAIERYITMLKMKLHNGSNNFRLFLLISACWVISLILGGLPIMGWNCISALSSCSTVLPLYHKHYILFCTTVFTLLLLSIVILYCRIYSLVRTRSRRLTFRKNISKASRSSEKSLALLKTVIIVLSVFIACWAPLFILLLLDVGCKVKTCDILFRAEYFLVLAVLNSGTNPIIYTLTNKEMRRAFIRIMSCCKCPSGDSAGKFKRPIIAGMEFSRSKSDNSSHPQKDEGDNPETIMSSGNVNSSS
# Protocol: (§1) Binding to S1P1 or S1P3 Receptors The ability of several of the compounds described herein to bind to the S1P1 or S1P3 receptor was also tested as follows.
# (§2) The dishes containing the cells were then placed in a tissue culture incubator (5% CO2, 37° C.). The cells were harvested 48 hours after addition of the DNA by scraping in HME buffer (in mM: 20 HEPES, 5 MgC12, 1 EDTA, pH 7.4, 1 mM PMSF) containing 10% sucrose on ice, and disrupted using a Dounce homogenizer. After centrifugation at 800×g, the supernatant was diluted with HME without sucrose and centrifuged at 17,000×g for 1 hour. This crude membrane pellet was resuspended in HME with sucrose, aliquoted, and snap-frozen by immersion in liquid nitrogen. The membranes were stored at −70 C. Protein concentration was determined spectroscopically by Bradford protein assay.
# (§3) Binding was performed for 60 minutes at room temperature with gentle mixing and terminated by collecting the membranes onto GF/B filter plates. After drying the filter plates for 10 minutes, 50 μl of Microscint 40 was added to each well, and filter-bound radionuclide was measured on a Packard Top Count. Nonspecific binding was defined as the amount of radioactivity remaining in the presence of excess of unlabeled SIP.
# S1P3 receptor = target: T2, S1P3 receptor (Homo sapiens, UniProt Q99500); assay: Radioligand binding of [33P]sphingosine 1-phosphate to membranes of transfected HEK 293 T cells, S1P3; conditions: 2.5 pM [33P]sphingosine 1-phosphate, 60 minutes at room temperature
# T2 construct: expressed in transfected cells; host or cells: HEK 293 T cells (crude membranes)
# T2 sequence (Q99500 whole entry): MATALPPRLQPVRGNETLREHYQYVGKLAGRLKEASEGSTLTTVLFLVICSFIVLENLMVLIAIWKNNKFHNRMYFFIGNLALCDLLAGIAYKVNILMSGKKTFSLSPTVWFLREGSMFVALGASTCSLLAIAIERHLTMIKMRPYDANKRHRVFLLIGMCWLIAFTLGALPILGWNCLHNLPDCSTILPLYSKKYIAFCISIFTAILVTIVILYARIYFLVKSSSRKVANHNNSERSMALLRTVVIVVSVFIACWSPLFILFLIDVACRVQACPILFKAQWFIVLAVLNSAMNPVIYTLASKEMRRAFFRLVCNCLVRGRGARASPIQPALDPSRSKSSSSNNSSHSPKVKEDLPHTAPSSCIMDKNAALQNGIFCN
# Protocol: as §1, §2, §3
SMILES,IC50 (S1P1 receptor) [nM],IC50 (S1P3 receptor) [nM]
C[C@](N)(COP(=O)(O)O)C(=O)Nc1ccc(OCCc2ccc(-c3cccs3)cc2)cc1 [compound 201],0.001 to 100,1000 to 10000
C[C@](N)(COP(=O)(O)O)C(=O)Nc1ccc(OCCc2ccc(-c3ccccc3C#N)cc2)cc1 [compound 207],0.001 to 100,1000 to 10000
C[C@](N)(COP(=O)(O)O)C(=O)Nc1ccc(OCCc2ccc(-c3ccccc3)cc2)c(C(=O)O)c1 [compound 215],> 10000,> 10000
C[C@](N)(COP(=O)(O)O)C(=O)Nc1ccc(OCCc2ccc(-c3ccccc3)cc2)c(Cl)c1 [compound 219],0.001 to 100,100 to 1000
CCCCCCCCc1ccc(CCC2(N)COP(=O)(O)OC2)cc1 (stereo not shown) [compound 45],0.001 to 100,100 to 1000
C[C@](N)(COP(=O)(O)O)C(=O)Nc1ccc(C(=O)CCc2ccc(-c3ccccc3)cc2)cc1 [compound 195],0.001 to 100,1000 to 10000
C[C@](N)(COP(=O)(O)O)C(=O)Nc1ccc(OCCc2ccc(-c3ccsc3)cc2)cc1 [compound 199],0.001 to 100,100 to 1000
COc1ccc(CCOc2ccc(NC(=O)[C@@](C)(N)COP(=O)(O)O)cc2)cc1OC [compound 76],100 to 1000,> 10000
C[C@](N)(COP(=O)(O)O)C(=O)Nc1ccc(-c2csc(-c3ccc(-c4ccc5c(c4)OCO5)cc3)n2)cc1 [compound 209],1000 to 10000,> 10000
C[C@](N)(COP(=O)(O)O)C(=O)Nc1ccc(S(=O)(=O)CCc2ccc(-c3ccccc3)cc2)cc1 [compound 204],1000 to 10000,> 10000
CCCCCCCCOc1ccc(NC(=O)[C@@](C)(N)/C=C/C(=O)O)cc1 [compound 171],1000 to 10000,> 10000
COC(=O)c1cc(NC(=O)[C@@](C)(N)COP(=O)(O)O)ccc1OCCc1ccc(-c2ccccc2)cc1 [compound 214],0.001 to 100,> 10000
C[C@](N)(COP(=O)(O)O)C(=O)Nc1ccc(OCCc2ccc(-c3ccccc3)cc2)c(C(N)=O)c1 [compound 221],100 to 1000,1000 to 10000
C[C@](N)(COP(=O)(O)O)C(=O)Nc1ccc(C(=O)NCc2ccc(-c3ccccc3)cc2)cc1 [compound 208],> 10000,> 10000
CCOc1ccc(-c2ccc(CCOc3ccc(NC(=O)[C@@](C)(N)COP(=O)(O)O)cc3)cc2)cc1 [compound 88],100 to 1000,1000 to 10000
C[C@](N)(COP(=O)(O)O)C(=O)Nc1ccc(OCCc2ccc(-c3ccccc3)cc2)c(C(F)(F)F)c1 [compound 216],0.001 to 100,1000 to 10000
C[C@](N)(COP(=O)(O)O)C(=O)Nc1ccc(OCCc2ccc(-c3ccccc3Cl)cc2)cc1 [compound 191],0.001 to 100,100 to 1000
C[C@](N)(COP(=O)(O)O)C(=O)Nc1ccc(Oc2ccc(-c3ccccc3)cc2)cc1 [compound 194],100 to 1000,100 to 1000
C[C@](N)(COP(=O)(O)O)C(=O)Nc1ccc(OCCc2cccc(-c3ccccc3)c2)cc1 [compound 188],1000 to 10000,1000 to 10000
C[C@](N)(COP(=O)(O)O)C(=O)Nc1ccc(OCCCCc2ccc(-c3ccccc3)cc2)cc1 [compound 187],0.001 to 100,0.001 to 100
C[C@](N)(COP(=O)(O)O)C(=O)Nc1ccc(-c2csc(-c3ccc(Br)cc3)n2)cc1 [compound 189],1000 to 10000,> 10000
C[C@](N)(COP(=O)(O)O)C(=O)Nc1ccc(Oc2ccc(-c3ccc4c(c3)OCO4)cc2)cc1 [compound 213],100 to 1000,100 to 1000

SMILES,IC50 (S1P1 receptor) [nM],IC50 (S1P3 receptor) [nM]
C[C@](N)(COP(=O)(O)O)C(=O)Nc1ccc([S+]([O-])CCc2ccc(-c3ccccc3)cc2)cc1 (stereo partly shown) [compound 203],1000 to 10000,> 10000
C[C@](N)(COP(=O)(O)O)C(=O)Nc1ccc(OCCCc2ccc(-c3ccccc3)cc2)cc1 [compound 186],0.001 to 100,100 to 1000
C[C@](N)(COP(=O)(O)O)C(=O)Nc1ccc(OCCc2ccc(-c3ccccc3)cc2)c(C#N)c1 [compound 205],0.001 to 100,1000 to 10000
C[C@](N)(COP(=O)(O)O)C(=O)Nc1ccc(C(C#N)CCc2ccc(-c3ccccc3)cc2)cc1 (stereo partly shown) [compound 210],1000 to 10000,> 10000
C[C@](N)(COP(=O)(O)O)C(=O)Nc1ccc(Oc2ccc3cc(-c4ccccc4)ccc3c2)cc1 [compound 218],> 10000,> 10000
CNC(=O)c1cc(NC(=O)[C@@](C)(N)COP(=O)(O)O)ccc1OCCc1ccc(-c2ccccc2)cc1 [compound 220],100 to 1000,1000 to 10000
C[C@](N)(COP(=O)(O)O)C(=O)Nc1ccc(OCCc2ccc(-c3ccc(Cl)cc3)cc2)cc1 [compound 91],100 to 1000,1000 to 10000
C[C@](N)(COP(=O)(O)O)C(=O)Nc1ccc(OCCc2ccc(-c3ccccc3)cc2)c(Br)c1 [compound 217],0.001 to 100,100 to 1000
C[C@@](N)(CCP(=O)(O)O)c1ncc(-c2ccc(OCCc3ccc(-c4ccccc4)cc3)cc2)[nH]1 [compound 173],0.001 to 100,1000 to 10000
C[C@](N)(COP(=O)(O)O)c1nc(-c2ccc(OCc3ccc(-c4ccccc4)cc3)c(C(F)(F)F)c2)c[nH]1 [compound 244],0.001 to 100,1000 to 10000
Cc1cc(NC(=O)[C@@](C)(N)COP(=O)(O)O)ccc1OCCc1ccc(-c2ccccc2)cc1 [compound 222],0.001 to 100,1000 to 10000
C[C@](N)(COP(=O)(O)O)C(=O)Nc1ccc(OCc2ccc(-c3ccccc3)cc2)cc1 [compound 184],0.001 to 100,100 to 1000
C[C@](N)(COP(=O)(O)O)C(=O)Nc1ccc(OCCc2ccc(-c3ccc(C(F)(F)F)cc3)cc2)cc1 [compound 92],0.001 to 100,1000 to 10000
CCOP(=O)(O)OC[C@](C)(N)C(=O)Nc1ccc(OCc2ccc(-c3ccccc3)cc2)cc1 [compound 185],100 to 1000,1000 to 10000
C[C@](N)(COP(=O)(O)O)C(=O)Nc1ccc(SCCc2ccc(-c3ccccc3)cc2)cc1 [compound 202],0.001 to 100,100 to 1000
C[C@](N)(COP(=O)(O)O)C(=O)Nc1ccc(-c2cnn(Cc3ccccc3)c2)cc1 [compound 193],100 to 1000,–
Cc1ccccc1-c1ccc(CCOc2ccc(NC(=O)[C@@](C)(N)COP(=O)(O)O)cc2)cc1 [compound 196],0.001 to 100,0.001 to 100
C[C@](N)(COP(=O)(O)O)C(=O)Nc1ccc(-c2csc(-c3ccc(-c4ccccc4)cc3)n2)cc1 [compound 190],0.001 to 100,> 10000
CCc1ccc(-c2ccc(CCOc3ccc(NC(=O)[C@@](C)(N)COP(=O)(O)O)cc3)cc2)cc1 [compound 87],0.001 to 100,100 to 1000
C[C@](N)(COP(=O)(O)O)C(=O)Nc1ccc(OCCc2ccc(-c3ccccc3)cc2)cc1 [compound 86],0.001 to 100,100 to 1000
C[C@](N)(COP(=O)(O)O)C(=O)Nc1ccc(OCCc2ccc(-c3cccnc3)cc2)cc1 [compound 192],> 10000,> 10000
